Source: patent US8613914B2, “Peptidomimetic sulfamide compounds and antiviral uses thereof” (Novartis AG, priority 2009, dated 2013)

target: HCV NS3-4A serine protease (full-length NS3-4A protein) (Hepatitis C virus genotype 1a (isolate 1) (HCV), UniProt P26664); test: HCV NS3-4A protease assay; assay type: biochemical, HCV genotype 1a; conditions: strain HCV-1, fluorogenic peptide substrate, read-out: Protease assay Ex. 12 IC50
Procedure: The inhibitory activity of certain compounds of Table A against HCV NS3-4A serine protease is determined in a homogenous assay using the full-length NS3-4A protein (genotype 1a, strain HCV-1) and a commercially available internally-quenched fluorogenic peptide substrate as described by Taliani, M., et al. 1996 Anal. Biochem. 240:60-67, which is incorporated by reference in its entirety.

HCV NS3-4A serine protease (full-length NS3-4A protein), sequence (P26664 1027-1657): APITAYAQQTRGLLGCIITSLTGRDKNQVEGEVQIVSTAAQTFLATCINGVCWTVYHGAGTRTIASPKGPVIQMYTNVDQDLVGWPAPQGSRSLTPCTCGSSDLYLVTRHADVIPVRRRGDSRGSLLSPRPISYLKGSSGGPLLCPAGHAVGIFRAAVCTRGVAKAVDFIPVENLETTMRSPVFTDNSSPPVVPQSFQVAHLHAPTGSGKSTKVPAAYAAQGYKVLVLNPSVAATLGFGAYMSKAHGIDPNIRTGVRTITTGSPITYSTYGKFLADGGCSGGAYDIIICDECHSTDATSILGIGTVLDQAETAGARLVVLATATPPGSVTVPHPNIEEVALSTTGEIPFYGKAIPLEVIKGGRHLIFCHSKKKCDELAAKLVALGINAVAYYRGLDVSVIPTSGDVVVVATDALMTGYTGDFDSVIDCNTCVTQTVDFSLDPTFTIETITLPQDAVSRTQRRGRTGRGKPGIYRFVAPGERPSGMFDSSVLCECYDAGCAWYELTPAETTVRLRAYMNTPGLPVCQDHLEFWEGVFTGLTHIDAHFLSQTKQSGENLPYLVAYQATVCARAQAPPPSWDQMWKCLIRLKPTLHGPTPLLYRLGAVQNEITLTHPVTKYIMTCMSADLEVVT
HCV NS3-4A serine protease (full-length NS3-4A protein), sequence (P26664 1658-1711 partner): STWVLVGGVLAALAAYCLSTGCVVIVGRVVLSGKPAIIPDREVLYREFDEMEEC

Row | Compound | IC50
1 | C=C[C@@H]1C[C@]1(NC(=O)[C@@H]1C[C@@]2(CN1C(=O)[C@@H](NC(=O)[C@@H](NC(=O)[C@@H]1CCCCN1CCOC)C1CCCCC1)C(C)(C)C)C(C)(C)C21CCC1)C(=O)NS(=O)(=O)N1CCCC1 [Compound 33, (5R,8S)-7-[(2S)-2-{[(2S)-2-cyclohexyl-2-({[(2S)-1-(2-methoxyethyl)piperidin-2-yl]carbonyl}amino)acetyl]amino}-3,3-dimethylbutanoyl]-10,10-dimethyl-N-{(1R,2S)-1-[(pyrrolidin-1-ylsulfonyl)carbamoyl]-2-vinylcyclopropyl}-7-azadispiro[3.0.4.1]decane-8-carboxamide] | 3.5 nM
2 | C=C[C@@H]1C[C@]1(NC(=O)[C@@H]1C[C@@]2(CN1C(=O)[C@@H](NC(=O)[C@@H](NC(=O)[C@@H]1CCCCN1C(C)C)C1CCCCC1)C1CCCCC1)C(C)(C)C21CCC1)C(=O)NS(=O)(=O)N1CCCC1 [Compound 35, (5R,8S)-7-[(2S)-2-cyclohexyl-2-{[(2S)-2-cyclohexyl-2-({[(2S)-1-isopropylpiperidin-2-yl]carbonyl}amino)acetyl]amino}acetyl]-10,10-dimethyl-N-{(1R,2S)-1-[(pyrrolidin-1-ylsulfonyl)carbamoyl]-2-vinylcyclopropyl}-7-azadispiro[3.0.4.1]decane-8-carboxamide] | 3 nM
3 | C=C[C@@H]1C[C@]1(NC(=O)[C@@H]1C[C@@]2(CN1C(=O)[C@@H](NC(=O)[C@@H](NC(=O)[C@H]1CCCCN1CC)C1CCCCC1)C(C)(C)C)C(C)(C)C21CCC1)C(=O)NS(=O)(=O)N1CCCC1 [Compound 36, (5R,8S)-7-[(2S)-2-{[(2S)-2-cyclohexyl-2-({[(2R)-1-ethylpiperidin-2-yl]carbonyl}amino)acetyl]amino}-3,3-dimethylbutanoyl]-10,10-dimethyl-N-{(1R,2S)-1-[(pyrrolidin-1-ylsulfonyl)carbamoyl]-2-vinylcyclopropyl}-7-azadispiro[3.0.4.1]decane-8-carboxamide] | 3.5 nM
4 | C=C[C@@H]1C[C@]1(NC(=O)[C@@H]1C[C@@]2(CN1C(=O)[C@@H](NC(=O)[C@@H](NC(=O)[C@@H]1CCCCN1CC)C1CCCCC1)C(C)(C)C)C(C)(C)C21CCC1)C(=O)NS(=O)(=O)N1CCCC1 [Compound 37, (5R,8S)-7-[(2S)-2-{[(2S)-2-cyclohexyl-2-({[(2S)-1-ethylpiperidin-2-yl]carbonyl}amino)acetyl]amino}-3,3-dimethylbutanoyl]-10,10-dimethyl-N-{(1R,2S)-1-[(pyrrolidin-1-ylsulfonyl)carbamoyl]-2-vinylcyclopropyl}-7-azadispiro[3.0.4.1]decane-8-carboxamide] | 3.3 nM
5 | C=C[C@@H]1C[C@]1(NC(=O)[C@@H]1C[C@@]2(CN1C(=O)[C@@H](NC(=O)[C@@H](NC(=O)[C@H]1CCCN1CC)C1CCCCC1)C(C)(C)C)C(C)(C)C21CCC1)C(=O)NS(=O)(=O)N1CCCC1 [Compound 38, (5R,8S)-7-[(2S)-2-{[(2S)-2-cyclohexyl-2-({[(2R)-1-ethylpyrrolidin-2-yl]carbonyl}amino)acetyl]amino}-3,3-dimethylbutanoyl]-10,10-dimethyl-N-{(1R,2S)-1-[(pyrrolidin-1-ylsulfonyl)carbamoyl]-2-vinylcyclopropyl}-7-azadispiro[3.0.4.1]decane-8-carboxamide] | 3.5 nM
6 | C=C[C@@H]1C[C@]1(NC(=O)[C@@H]1C[C@@]2(CN1C(=O)[C@@H](NC(=O)[C@@H](NC(=O)[C@@H]1CCCN1CC)C1CCCCC1)C(C)(C)C)C(C)(C)C21CCC1)C(=O)NS(=O)(=O)N1CCCC1 [Compound 39, (5R,8S)-7-[(2S)-2-{[(2S)-2-cyclohexyl-2-({[(2S)-1-ethylpyrrolidin-2-yl]carbonyl}amino)acetyl]amino}-3,3-dimethylbutanoyl]-10,10-dimethyl-N-{(1R,2S)-1-[(pyrrolidin-1-ylsulfonyl)carbamoyl]-2-vinylcyclopropyl}-7-azadispiro[3.0.4.1]decane-8-carboxamide] | 2.5 nM
7 | C=C[C@@H]1C[C@]1(NC(=O)[C@@H]1C[C@@]2(CN1C(=O)[C@@H](NC(=O)[C@@H](NC(=O)C1CCN1C(C)(C)C)C1CCCCC1)C(C)(C)C)C(C)(C)C21CCC1)C(=O)NS(=O)(=O)N1CCCC1 (stereo partly drawn) [Compound 40, (5R,8S)-7-[(2S)-2-{[(2S)-2-{[(1-tert-butylazetidin-2-yl)carbonyl]amino}-2-cyclohexylacetyl]amino}-3,3-dimethylbutanoyl]-10,10-dimethyl-N-{(1R,2S)-1-[(pyrrolidin-1-ylsulfonyl)carbamoyl]-2-vinylcyclopropyl}-7-azadispiro[3.0.4.1]decane-8-carboxamide] | 6 nM
8 | C=C[C@@H]1C[C@]1(NC(=O)[C@@H]1C[C@@]2(CN1C(=O)[C@@H](NC(=O)[C@@H](NC(=O)[C@@H]1CCCCN1C(C)C)C1CCCCC1)C1CCOCC1)C(C)(C)C21CCC1)C(=O)NS(=O)(=O)N1CCCC1 [Compound 41, (5R,8S)-7-[(2S)-2-{[(2S)-2-cyclohexyl-2-({[(2S)-1-isopropylpiperidin-2-yl]carbonyl}amino)acetyl]amino}-2-(tetrahydro-2H-pyran-4-yl)acetyl]-10,10-dimethyl-N-{(1R,2S)-1-[(pyrrolidin-1-ylsulfonyl)carbamoyl]-2-vinylcyclopropyl}-7-azadispiro[3.0.4.1]decane-8-carboxamide] | 0.9 nM
9 | C=C[C@@H]1C[C@]1(NC(=O)[C@@H]1C[C@@]2(CN1C(=O)[C@@H](NC(=O)[C@@H](NC(=O)c1cnccn1)C1CCCCC1)C1CCOCC1)C(C)(C)C21CCC1)C(=O)NS(=O)(=O)N1CCCC1 [Compound 42, (5R,8S)-7-[(2S)-2-({(2S)-2-cyclohexyl-2-[(pyrazin-2-ylcarbonyl)amino]acetyl}amino)-2-(tetrahydro-2H-pyran-4-yl)acetyl]-10,10-dimethyl-N-{(1R,2S)-1-[(pyrrolidin-1-ylsulfonyl)carbamoyl]-2-vinylcyclopropyl}-7-azadispiro[3.0.4.1]decane-8-carboxamide] | 40 nM
10 | C=C[C@@H]1C[C@]1(NC(=O)[C@@H]1C[C@@]2(CN1C(=O)[C@@H](NC(=O)[C@@H](NC(=O)c1cnccn1)C1CCOCC1)C(C)(C)C)C(C)(C)C21CCC1)C(=O)NS(=O)(=O)N1CCCC1 [Compound 43, (5R,8S)-7-[(2S)-3,3-dimethyl-2-{[(2S)-2-[(pyrazin-2-ylcarbonyl)amino]-2-(tetrahydro-2H-pyran-4-yl)acetyl]amino}butanoyl]-10,10-dimethyl-N-{(1R,2S)-1-[(pyrrolidin-1-ylsulfonyl)carbamoyl]-2-vinylcyclopropyl}-7-azadispiro[3.0.4.1]decane-8-carboxamide] | 60 nM
11 | C=C[C@@H]1C[C@]1(NC(=O)[C@@H]1C[C@@]2(CN1C(=O)[C@@H](NC(=O)[C@@H](NC(=O)[C@@H]1CCCCN1C(C)C)C1CCOCC1)C(C)(C)C)C(C)(C)C21CCC1)C(=O)NS(=O)(=O)N1CCCC1 [Compound 44, (5R,8S)-7-[(2S)-2-{[(2S)-2-({[(2S)-1-isopropylpiperidin-2-yl]carbonyl}amino)-2-(tetrahydro-2H-pyran-4-yl)acetyl]amino}-3,3-dimethylbutanoyl]-10,10-dimethyl-N-{(1R,2S)-1-[(pyrrolidin-1-ylsulfonyl)carbamoyl]-2-vinylcyclopropyl}-7-azadispiro[3.0.4.1]decane-8-carboxamide] | 15 nM
12 | C=C[C@@H]1C[C@]1(NC(=O)[C@@H]1C[C@@]2(CN1C(=O)[C@@H](NC(=O)[C@@H](NC(=O)[C@@H]1CCCCN1C(C)C)C1CCCCC1)C(C)(C)C)C(C)(C)C21CCC1)C(=O)NS(=O)(=O)N1CC[C@@H](F)C1 [Compound 45, (5R,8S)-7-[(2S)-2-{[(2S)-2-cyclohexyl-2-({[(2S)-1-isopropylpiperidin-2-yl]carbonyl}amino)acetyl]amino}-3,3-dimethylbutanoyl]-N-[(1R,2S)-1-({[(3R)-3-fluoropyrrolidin-1-yl]sulfonyl}carbamoyl)-2-vinylcyclopropyl]-10,10-dimethyl-7-azadispiro[3.0.4.1]decane-8-carboxamide] | 1 nM
13 | C=C[C@@H]1C[C@]1(NC(=O)[C@@H]1C[C@@]2(CN1C(=O)[C@@H](NC(=O)[C@@H](NC(=O)[C@@H]1CCCCN1C(C)C)C1CCCCC1)C(C)(C)C)C(C)(C)C21CCC1)C(=O)NS(=O)(=O)N1CC[C@H](F)C1 [Compound 46, (5R,8S)-7-[(2S)-2-{[(2S)-2-cyclohexyl-2-({[(2S)-1-isopropylpiperidin-2-yl]carbonyl}amino)acetyl]amino}-3,3-dimethylbutanoyl]-N-[(1R,2S)-1-({[(3S)-3-fluoropyrrolidin-1-yl]sulfonyl}carbamoyl)-2-vinylcyclopropyl]-10,10-dimethyl-7-azadispiro[3.0.4.1]decane-8-carboxamide] | 2 nM
14 | C=C[C@@H]1C[C@]1(NC(=O)[C@@H]1C[C@@]2(CN1C(=O)[C@@H](NC(=O)[C@@H](NC(=O)[C@H]1CCCCN1C(C)C)C1CCCCC1)C(C)(C)C)C(C)(C)C21CCC1)C(=O)NS(=O)(=O)N1CCCC1 [Compound 47, (5R,8S)-7-[(2S)-2-{[(2S)-2-cyclohexyl-2-({[(2R)-1-isopropylpiperidin-2-yl]carbonyl}amino)acetyl]amino}-3,3-dimethylbutanoyl]-10,10-dimethyl-N-{(1R,2S)-1-[(pyrrolidin-1-ylsulfonyl)carbamoyl]-2-vinylcyclopropyl}-7-azadispiro[3.0.4.1]decane-8-carboxamide] | 4.8 nM
15 | C=C[C@@H]1C[C@]1(NC(=O)[C@@H]1C[C@@]2(CN1C(=O)[C@@H](NC(=O)[C@@H](NC(=O)[C@H]1CCCCN1C)C1CCCCC1)C(C)(C)C)C(C)(C)C21CCC1)C(=O)NS(=O)(=O)N1CCCC1 [Compound 48, (5R,8S)-7-[(2S)-2-{[(2S)-2-cyclohexyl-2-({[(2R)-1-methylpiperidin-2-yl]carbonyl}amino)acetyl]amino}-3,3-dimethylbutanoyl]-10,10-dimethyl-N-{(1R,2S)-1-[(pyrrolidin-1-ylsulfonyl)carbamoyl]-2-vinylcyclopropyl}-7-azadispiro[3.0.4.1]decane-8-carboxamide] | 0.9 nM
